Measured values from patent US8425880B1, “Metal-containing materials for treatment of bacterial conditions” (priority 2007, dated 2013).
Where “and” joins values, the source holds several entries; their conditions need not be identical. Identical values can stand only once.

Assays:
[1] = tested on: C. difficile spores (strain ATCC 43596); experiment: Sporicidal assay; format: cell-based, Clostridium difficile; parameters: key to growth after 5-6 days of subculture: presence (+) or absence (−) of growth after 5-6 days of subculture; presence (+) or absence (−) of growth after 5-6 days of subculture
Method: Louis, Mo.). […] Silver preparations were filtered at 0.2 microns and stored in the dark at room temperature. Spore germination was induced as previously described in, for example, […] and Sonenshein A L. Mol Microbiol. 2003 48(3): 811-821; and Ionesco H. C R Acad Sci Hebd […]. 25; 287(6):659-61. C. difficile suspended in BHI was heat-killed at 80° C. for 10 minutes, and germination then stimulated by a 30-min incubation at 50° C. in the presence of 165 μM thioglycollate, followed by a 15-min incubation at 37° C. in the presence of 4 mg/ml lysozyme.

C. difficile = format: cell-based, Clostridium difficile; details: for Microdilution MIC: pH 4
C. perfringens = format: cell-based, Clostridium perfringens

Row | Compound | inactivation of C. difficile spores [1] | growth after 5-6 days of subculture ([1]; Expt 3, Conc. 0.01%) | growth after 5-6 days of subculture ([1]; Expt 3, Conc. 0.03%) | Microdilution MIC (C. difficile) | growth after 5-6 days of subculture ([1]; Expt 2, Conc. 0.00005%) | growth after 5-6 days of subculture ([1]; Expt 2, Conc. 0.0005%) | growth after 5-6 days of subculture ([1]; Expt 2, Conc. 0.005%) | growth after 5-6 days of subculture ([1]; Expt 2, Conc. 0.05%) | MIC (C. perfringens) | MIC (C. difficile) | growth after 5-6 days of subculture ([1]; Expt 1, Conc. 0.02%) | growth after 5-6 days of subculture ([1]; Expt 1, Conc. 0.2%) | growth after 5-6 days of subculture ([1]; Expt 1, Conc. 2%)
1 | silver (I) oxide [Ag2O] | inactivated the spores of C. difficile | − | − | 16 ppm and 31 ppm |  |  |  |  |  |  |  |  | 
2 | O=[N+]([O-])[O-].[Ag+] [AgNO3, Silver nitrate] | inactivated the spores of C. difficile | − | − | 18 ppm and 9 ppm | + | − | − | − | 92 ppm (μg/ml) | 18 (8-23) ppm (μg/ml) |  |  | 
3 | O=CCCCC=O [Glutaraldehyde, glutaraldehyde] |  |  |  |  |  |  |  |  |  |  | + | − | −
